# Reference: patent publication US6624146B1, “Pharmaceutical compositions containing fibroblast growth factor-related peptides” (Agency of Industrial Science and Technology, priority 1998, dated 2003)
# Key:
# [1] = Weight-reducing effect: change in body weight the day after injection into the cerebral ventricles; type: in vivo, Wistar rats
# Protocol: This peptide was dissolved in physiological saline to prepare a 2.6 pmol/μl peptide-containing injection solution. Five μl of the injection solution (containing 13 pmol peptide) was administered into the cerebral ventricles of 10-week-old male Wistar rats, which were weighed on the next day to calculate amounts of change in weight prior to and subsequent to injection.
# On the other hand, 5 μl physiological saline was administered to rats as a control in the same manner as described above, and 2.6 pmol/μl FGF-containing injection solution was administered to rats as a comparative example in the same manner as described above. Each rat was weighed on the next day to calculate amounts of change in weight prior to and subsequent to injection.
# [2] = Food and water intake inhibitory effects 12 hours after injection into the cerebral ventricles; type: in vivo, Wistar rats
# Protocol: In the same manner as in example 1, the peptide […]Try-Lys-Lys-Pro-Lys-Leu (SEQ ID NO:3) was synthesized. This peptide was dissolved in physiological saline to prepare a 2.6 pmol/μl peptide-containing injection solution. Five μl of the injection solution (containing 13 pmol peptide) was administered in the cerebral ventricles of 10-week old male Wistar rats, and the food and water intake level were measured 12 hours after administration to compare with those in the same period of the day prior to administration.
# On the other hand, 5 μl physiological saline was administered as a control in the same manner as described above, and 2.6 pmol/μl FGF-containing injection solution was administered as a comparative example in the same manner as described above. Food and water intake levels were measured respectively 12 hours after administration, and were compared to those in the same period of the day prior to administration to calculate amounts of change in food and water intake.
# [3] = 13 pmol into the cerebral ventricles, 12 hours, vs saline control
# [4] = 10-week-old male Wistar rats, 13 pmol/5 μl into the cerebral ventricles, 12 hours after administration vs same period of the day prior
substance,measurement,setting,value
Ala-Ala-Val-Ala-Leu-Leu-Pro-Ala-Val-Leu-Leu-Ala-Leu-Leu-Ala-Val-Ala-Ala-Ala-Asn-Try-Lys-Lys-Pro-Lys-Leu (AAVALLPAVLLALLAVAAANYKKPKL; Derivative of partial peptide of fibroblast growth factors),Weights of the rats compared to physiological saline control (in words),"[1]; 13 pmol into the cerebral ventricles, next day, vs saline control",significantly reduced
same,Amount of change in weight,"[1]; 10-week-old male Wistar rats, 13 pmol/5 μl into the cerebral ventricles, weighed on the next day, prior vs subsequent to injection",-5.3 g
same,Food intake level compared to physiological saline control (in words),[2]; [3],significantly reduced
same,Water intake level compared to physiological saline control (in words),[2]; [3],significantly reduced
same,Amount of change in food intake,[2]; [4],-4.8 g
same,Amount of change in water intake,[2]; [4],-8.4 mL
